Legend:
[1] = tested on: HCT-116 cells (human colon carcinoma cell line); assay: MTT cytotoxicity assay, HCT-116; type: cell-based; settings: HCT-116, MTT, 72 h, read-out: IC50
Text: Colorectal carcinoma cells (HCT-116), chronic myelogenous leukemia (K562), and acute promyelocytic leukemia (HL-60) were generously provided by Dr. Manoel de Moraes (Federal University of Ceará, Fortaleza, Brazil) and cultured in Roswell Park Memorial Institute 1640 (RPMI 1640; Sigma Aldrich, St. Louis, MO, USA) medium supplemented with 10% fetal bovine serum (GIBCO, Grand Island, NY, USA) and 1% penicillin–streptomycin (Sigma Aldrich, St. Louis, MO, USA). Human keratinocyte cells (HaCaT; provided by Dr. Jaciana Aguiar from Federal University of Pernambuco, Recife, Pernambuco, Brazil), cervical cancer cells (HeLa; purchased from the cell bank of Rio de Janeiro, Rio de Janeiro, Brazil), and breast cancer cells (MCF-7; provided by Dr. João Ernesto de Carvalho from University of Campinas, Campinas, São Paulo, Brazil) were grown and maintained in Dulbecco’s Modified Eagle’s Medium (DMEM; Sigma Aldrich, St. Louis, MO, USA) supplemented with 10% fetal bovine serum (GIBCO, Grand Island, NY, USA) and 1% penicillin–streptomycin (Sigma Aldrich, St. Louis, MO, USA). All cell types were maintained in 5% CO2 at 37 °C with humidity.
MTT (3-(4,5-dimethylthiazol-2-yl)-2,5-diphenyltetrazolium bromide) reduction assay was used to evaluate the cytotoxicity of ACS03 and its precursors (2-amino-5,6,7,8-tetrahydro-4H-cyclohepta[b]thiophene-3-carbonitrile and 6,9-dichloro-2-methoxyacridine) against tumor and non-tumor cell lines and PBMC. For the MTT assay, cell lines (3 × 10^5 cells/mL) and PBMC (1 × 10^6 cells/mL) were seeded on 96-well plates and cultured for 24 h. ACS03 (3.125–200 µM) was added to the cell cultures and incubated for 72 h. After incubation, 110 µL of the supernatant was removed and 10 μL of the MTT reagent (Sigma Aldrich, St. Louis, MO, USA) was added to each well, and the plates were then incubated at 37 °C. Following 3 h incubation, 100 μL of sodium dodecyl sulfate (SDS) was added to dissolve the formazan crystals produced and left overnight to incubate. The amount of formazan is proportional to the number of viable cells present. The optical density was measured using a microplate spectrophotometer reader (Microplate reader BioTek Instruments, Sinergy HT, Winooski, VT, USA) at λ = 570 nm and used to calculate the IC50 (half maximal inhibitory concentration).

nitrite (nitric oxide) = assay: Nitrite levels in ascitic fluid, Ehrlich ascites carcinoma model (Griess); type: in vivo, mice (Mus musculus); settings: peritoneal fluid, 25 mg/kg; control 36.09 ± 0.72 µM
Experimental: The nitrite concentration in the ascitic fluid was measured using Griess reagent. For this, the peritoneal fluid of control and treated animals (12.5 mg/kg ACS03 and 25 mg/kg 5-FU) was used. The optical density was measured using a microplate spectrophotometer reader (Microplate reader BioTek Instruments, Sinergy HT, Winooski, VT, USA) at λ = 560 nm. Concentrations of nitrite were calculated from a standard curve previously established with known molar concentrations of sodium nitrite. The tests were done in quadruplicate and the values expressed in µM [51].

| Structure (SMILES) | IC50 [1] | nitrite concentration (nitrite (nitric oxide)) |
| --- | --- | --- |
| N#Cc1c(N)sc2c1CCCCC2 [2-amino-thiophene, 2-amino-5,6,7,8-tetrahydro-4H-cyclohepta[b]thiophene-3-carbonitrile] | > 1000 µM | – |
| O=c1[nH]cc(F)c(=O)[nH]1 [5-FU, 5-fluorouracil, reference compound] | – | 16.3 ± 2.91 µM |
